For one series, the system named is 6 Hz-induced seizures. Description: 6 Hz seizure test in mice with isobolographic analysis. The note with it: for doses for antiseizure effect compared with those needed in the MES test: MES data obtained in other studies; for anticonvulsant effects against 6 Hz seizure: drug administered alone, i.p., mice.
The test system of a further series is epileptic seizures. In words: ED50 values in various models of the rat and the mouse. In kind it is in vivo. As to conditions: i.p. The method, then:
The skilled person may determine the ED50 values by methods known in the art. It is preferred that the ED50 values are determined by preclinical or/and clinical trials. Published ED50 values may also be used. […] FIGS. 12 and 13 disclose specific ED50 values obtained in various models of the rat and the mouse. A person skilled in the art knows that in a particular model, among different species, ED50 values show a variation by a factor of up to 5 or even larger.

Series [1] deals with 6 Hz refractory seizure model. As to conditions: in vivo; cited from earlier work.
Another series deals with motor coordination. Description: Rotarod test. In kind it is in vivo, mice. As to conditions: drug alone at pharmacological doses. The protocol: The impaired motor function was quantified by the rotarod test in mice according to Dunham and Miya (1957). The rotarod test was undertaken by use of a rod of 3 cm diameter, rotating at constant speed of 6 rpm. In this test, an acute neurological deficit (adverse effects produced by AEDs) was indicated by the inability of the animals to maintain their equilibrium for at least 120 s on the rotating rod. The dose ratio assessed in this model was always 1:1. For comparison, each AED was tested alone at its ED50 and 50% of its ED50 in the 6 Hz model.

Series [2] concerns voltage gated sodium channels. In words: Voltage gated sodium channels in cell/tissue culture. The class given is cell-based. The note with it: recent data.
Series [3] addresses collapsing response mediator protein CRMP-2 (Homo sapiens, UniProt Q16555). Description: Modulation of CRMP-2. As to conditions: recent data.
Series [4] has as its system maximal electroshock seizure [MES]. As to conditions: in vivo; cited from earlier work.
The test system of another series is sound-induced seizure. The note with it: mouse, in vivo; cited from earlier work.
Series [5] concerns refractory self-sustaining status epilepticus. The note with it: in vivo; cited from earlier work.
In series [6] the test system is cobalt-homocysteine-induced status epilepticus. The note with it: in vivo; cited from earlier work.
In series [7] the test system is lithium-pilocarpine-induced status epilepticus. As to conditions: in vivo; cited from earlier work.
For series [8], the system named is neurotransmitter receptors or ion channels. As to conditions: more than 100 different sites; cited from earlier work.
The test system of another series is NMDA-evoked currents. As to conditions: cell/tissue culture; cited from earlier work.
Series [9] deals with voltage gated sodium channels. As to conditions: cell/tissue culture; cited from earlier work.
A further series concerns GABA currents. As to conditions: mouse cortical neurons; cited from earlier work.
The test system of the next series is glutamate transmission. The note with it: mouse cortical neurons; cited from earlier work.
In series [10] the test system is pattern of neuronal activation. As to conditions: 2-deoxy glucose technique; cited from earlier work.
The nature of series [11]: Clinical population pharmacokinetic analysis.

“Also recorded” adds a separate entry of the source.

`NC(=O)N1c2ccccc2C=Cc2ccccc21` [CBZ, carbamazepine]: in the series on 6 Hz-induced seizures, the “doses for antiseizure effect compared with those needed in the MES test” value is on record as “significantly higher doses” and the “anticonvulsant effects against 6 Hz seizure” value (shortened to “anticonvulsant effects”) is listed as “dose-dependent anticonvulsant effects”.

`CC1(C)O[C@@H]2[C@@H](CO[C@@]3(COS(N)(=O)=O)OC(C)(C)O[C@@H]23)O1` [TPM, topiramate]: in the series on 6 Hz-induced seizures, the “doses for antiseizure effect compared with those needed in the MES test” value is recorded as “significantly higher doses” and the “anticonvulsant effects” value was “dose-dependent anticonvulsant effects”.

`CC[C@@H](C(N)=O)N1CCCC1=O` [LEV, levetiracetam]: the ED50 entry with epileptic seizures is “about 20 mg/kg body weight”. Moreover, the “protection in the 6 Hz model” value in series [1] is “complete protection”. Further, the “anticonvulsant effects” value with 6 Hz-induced seizures is given as “dose-dependent anticonvulsant effects”.

With `NCC1(CC(=O)O)CCCCC1` [GBP, gabapentin], in the series on 6 Hz-induced seizures, the “doses for antiseizure effect compared with those needed in the MES test” value was “significantly higher doses” and the “anticonvulsant effects” value is recorded as “dose-dependent anticonvulsant effects”.

For `COC[C@@H](NC(C)=O)C(=O)NCc1ccccc1` [LCM, R-2-acetamido-N-benzyl-3-methoxypropionamide], the rotarod performance entry with motor coordination is reported as “did not impair rotarod performance”. The “slow inactivation of voltage-gated sodium channels” value in series [2] is recorded as “enhances slow inactivation”. Further, the “effect on CRMP-2” value in [3] is on record as “modulates”. Moreover, the anticonvulsant activity entry (in [1]; in series [4]; in the series on sound-induced seizure) was “anticonvulsant activity has been shown” throughout. Moreover, the figures for the “activity against status epilepticus” value in series [5], in [6] and in [7] were “active”, “effective” and “effective”, respectively. Further, the binding result in series [8] is “neither LCM nor its metabolites bind”. Moreover, in the series with NMDA-evoked currents, the “effects on NMDA-evoked currents” value is listed as “no effects”. The “effects at voltage gated sodium channels” value in [9] is reported as “no effects”. Also, in the series on GABA currents, the “effect on GABA currents” value was “increased GABA currents”. Moreover, the “effect on glutamate transmission” value in the series on glutamate transmission was “inhibited glutamate transmission indirectly”. Besides, the “effect on basal patterns” value in [10] was “no effect”. Further, the “effect on the pattern of neuronal activation by 6 Hz induced seizures” value in series [10] is recorded as “attenuated”. For the same compound, in series [11], the “effect on plasma levels of AEDs or vice versa” value is recorded as “no evidence for any effect”. The “potency compared to the other tested AEDs” value with 6 Hz-induced seizures (6 Hz model, drugs alone) was “highest potency”. In addition, the “anticonvulsant effects” value in the series on 6 Hz-induced seizures was “dose-dependent anticonvulsant effects; also recorded: fully protected”.

As to `O=C1NC(=O)C(c2ccccc2)(c2ccccc2)N1` [PHT, phenytoin], in the series on 6 Hz-induced seizures, the “doses for antiseizure effect compared with those needed in the MES test” value was “significantly higher doses” and the “anticonvulsant effects” value is “dose-dependent anticonvulsant effects”.

As for `Nc1nnc(-c2cccc(Cl)c2Cl)c(N)n1` [LTG, lamotrigine], the ED50 entry in the series on epileptic seizures is “about 85 mg/kg body weight”. In the series with 6 Hz-induced seizures, the “doses for antiseizure effect compared with those needed in the MES test” value is given as “significantly higher doses” and the “anticonvulsant effects” value is listed as “dose-dependent anticonvulsant effects”.

These data come from patent US9446011B2, “Anticonvulsant combination therapy” (UCB Pharma GmbH, priority 2006, dated 2016).
